Key:
Type in all cases: cell-based, Staphylococcus aureus
S. aureus [1] = assay: Microbicidal plate assay, pEPO with amine additives, aged 0 or 5 minutes with H2O2 (Example 7); conditions: FIG. 7, 10 ug/mL pEPO, additive 3 mM, 2 mM NaBr; for microbicidal activity, Reaction 2 (aged 5 minutes with H2O2): 0.89 mM H2O2; for microbicidal activity, Reaction 1 (aged 0 min): 0.89 mM H2O2, one minute, 10^8 cfu/mL
S. aureus [2] = assay: Microbicidal plate assay, formulations aged 1 or 30 minutes before adding bacteria, with or without ethanolamine (Examples 5 and 6); conditions: FIG. 6 compared to FIG. 5
Procedure: S. aureus (10^9 cfu/mL, final concentration) was added and the reaction was incubated at room temperature for one minute. The reaction was stopped by plating. The plates were incubated overnight at 36° C.
The reactions described in Example 4 were repeated with Formulations F for plates 2-5 with the added condition that the formulations were incubated (aged) 1 or 30 minutes prior to adding the S. aureus bacteria. The reaction was incubated at room temperature for one minute after the addition of bacteria. An additional sample was added (100 μg/mL pEPO; 8.9 mM H2O2; 20 mM ethanolamine; and 20 mmM NaBr).
The reactions were carried out as described in Example 5.

S. aureus [3] = assay: Microbicidal plate assay, pEPO formulations aged two minutes to ninety-six hours with H2O2 (Examples 8 and 9); conditions: 50 ug/mL pEPO, 20 mM additive; for microbicidal activity, Reaction 2 (aged twenty-four hours): FIG. 9B; for microbicidal activity, Reaction 2 (aged twenty-four hours) / retention of microbicidal activity on ageing / microbicidal activity, Reaction 1 (aged two minutes): 10 mM NaBr, 8.9 mM H2O2; for retention of microbicidal activity on ageing: FIGS. 8A-8C, aged two minutes, twenty-four or ninety-six hours; for kill of the microbes added to aged formulations: aged for up to ninety-six hours before the addition of bacteria; for microbicidal activity, Reaction 1 (aged two minutes): FIG. 9A
S. aureus [4] = assay: Microbicidal plate assay, hydrogen peroxide/pEPO/ethanolamine versus neat hydrogen peroxide (Example 4)

OCCNCCO [diethanolamine]
microbicidal activity, Reaction 2 (aged 5 minutes with H2O2) (S. aureus [1]): maintained microbicidal activity | microbicidal activity, Reaction 1 (aged 0 min) (S. aureus [1]): some microbicidal activity

NCCO [ethanolamine]
effect of ethanolamine on microbicidal activity (S. aureus [2]): significantly enhances the microbicidal activity of pEPO/H2O2 compositions | microbicidal activity, Reaction 2 (aged 5 minutes with H2O2) (S. aureus [1]): maintained microbicidal activity | microbicidal activity, Reaction 1 (aged 0 min) (S. aureus [1]): some microbicidal activity | microbicidal activity, Reaction 2 (aged twenty-four hours) (S. aureus [3]): retain microbicidal activity for twenty-four hours | retention of microbicidal activity on ageing (S. aureus [3]): retain microbicidal activity up to at least ninety-six hours | kill of the microbes added to aged formulations (S. aureus [3]): complete kill

NCC(N)=O [glycinamide, Glycinamide, reference compound]
microbicidal activity, Reaction 1 (aged two minutes) (S. aureus [3]): show initial microbicidal activity | microbicidal activity, Reaction 2 (aged twenty-four hours) (S. aureus [3]): lose microbicidal activity after twenty-four hours

COC(=O)CN [glycine methyl ester, Glycine methyl ester, reference compound]
microbicidal activity, Reaction 1 (aged two minutes) (S. aureus [3]): show initial microbicidal activity | microbicidal activity, Reaction 2 (aged twenty-four hours) (S. aureus [3]): lose microbicidal activity after twenty-four hours

OO [hydrogen peroxide]
concentration of H2O2 effective to result in a complete kill (as low as) (S. aureus [4]): 0.5 mM | killing the bacteria by neat hydrogen peroxide (S. aureus [4]; 89 mM (0.3%), no pEPO, one minute): ineffective in killing the bacteria | kill of the bacteria (S. aureus [4]; hydrogen peroxide 0.5 mM with the addition of pEPO, Plate 2): 100%

NCCCO [propanolamine]
retention of microbicidal activity on ageing (S. aureus [3]): retain microbicidal activity up to at least ninety-six hours | kill of the microbes added to aged formulations (S. aureus [3]): complete kill

N[C@@H](CO)C(=O)O [serine, L-serine, reference compound]
microbicidal activity, Reaction 2 (aged 5 minutes with H2O2) (S. aureus [1]): only formulations comprising pEPO and ethanolamine or diethanolamine maintained microbicidal activity | microbicidal activity, Reaction 1 (aged 0 min) (S. aureus [1]): some microbicidal activity
